Data set [1] in a line: Compound was evaluated for the solubility at the pH 7.4. Conditions: buffer. Format: ADME.
Data set [2] addresses T1, Human immunodeficiency virus type 1 protease (Human immunodeficiency virus 1, UniProt Q72874).
Description: Effective concentration of compound for inhibition of HIV 1 protease was determined
For data set [3], the target named is T1, Human immunodeficiency virus type 1 protease. This is another data set of the same source.
Description: Compound was evaluated for the inhibitory activity against HIV-1 protease
Data set [4] deals with Human immunodeficiency virus type 1 protease (Human immunodeficiency virus 1) (UniProt Q72874).
Description: Compound was evaluated for the thymidine reversal of HIV-1 protease
The next data set has as its system L1210. Nature of the data set: cells. Conditions: Mus musculus.
The target of data set [5] is T1, Human immunodeficiency virus type 1 protease. This is another data set of the same source.
Description: Inhibition of HIV-1 protease
The next data set has as its target Carbonic anhydrase 2 (Homo sapiens, UniProt P00918).
A further data set addresses Thymidylate synthase (Homo sapiens, UniProt P04818).

In brackets after ≈: the same amount, converted by molar mass.

Sequence of Thymidylate synthase (P04818 whole entry): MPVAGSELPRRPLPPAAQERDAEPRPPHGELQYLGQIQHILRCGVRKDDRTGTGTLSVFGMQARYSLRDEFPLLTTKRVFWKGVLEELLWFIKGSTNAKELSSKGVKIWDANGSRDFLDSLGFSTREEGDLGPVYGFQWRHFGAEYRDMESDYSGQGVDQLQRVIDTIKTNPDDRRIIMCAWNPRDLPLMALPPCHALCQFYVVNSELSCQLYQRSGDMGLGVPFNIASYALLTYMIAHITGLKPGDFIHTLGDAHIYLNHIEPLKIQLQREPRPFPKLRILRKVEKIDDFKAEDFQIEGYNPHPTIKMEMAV
Description for Carbonic anhydrase 2: Compound was evaluated for the inhibitory constant towards Human Carbonic anhydrase II (HCA II)
Description for L1210: Compound was evaluated for the inhibitory activity of L1210 cells
Description for Thymidylate synthase: Compound was evaluated for the inhibitory constant of human thymidylate synthase

As a reminder, the solubility is how much of the substance goes into solution per volume. Low values mean little dissolved substance, high ones much dissolved substance. For orientation: EC50 means the concentration giving half of the maximal effect. A lower EC50 goes with a more potent agent. The term Ki denotes the equilibrium dissociation constant of an inhibitor or competing ligand from its target. Lower therefore signals a stronger hold on the target. With `CC(C)[C@H](NC(=O)N(C)Cc1ccccn1)C(=O)N[C@@H](Cc1ccccc1)[C@@H](O)[C@H](O)[C@H](Cc1ccccc1)NC(=O)[C@@H](NC(=O)N(C)Cc1ccccn1)C(C)C`, the solubility in data set [1] was 4.7 µM (≈ 3.74 µg/mL). The same molecule had an EC50 in data set [2] of 60 nM. In data set [3], this molecule showed a Ki of 0.18 nM. The IC50 is the concentration at which inhibition is half-maximal. A high value points to weaker potency. Take `CN(Cc1ccc(S(=O)(=O)N2CCOCC2)cc1)c1ccc2c3c(cccc13)C(=N)N2`: the Thymidine reversal in data set [4] is 8.5. The molecule also came in with an IC50 in the data set with L1210 of 300 nM.

In the case of `CC(=O)N[C@H](C(=O)N[C@H](C(=O)N[C@@H](Cc1ccccc1)C(O)[C@H](Cc1ccccc1)NC(=O)[C@@H](NC(=O)[C@@H](NC(C)=O)C(C)C)C(C)C)C(C)C)C(C)C`, half-maximal inhibition in data set [5] (IC50) was put at 10 nM. In turn, `CC(C)[C@H](NC(=O)OCc1ccccc1)C(=O)N[C@@H](Cc1ccccc1)C(O)C(O)[C@H](Cc1ccccc1)NC(=O)[C@@H](NC(=O)OCc1ccccc1)C(C)C` (single isomer, unassigned; 11) yielded an IC50 in data set [5] of 0.22 nM. As to `CC(C)[C@H](NC(=O)N(C)Cc1ccccn1)C(=O)N[C@@H](Cc1ccccc1)[C@H](O)[C@H](O)[C@H](Cc1ccccc1)NC(=O)[C@@H](NC(=O)N(C)Cc1ccccn1)C(C)C` [A-77003], the solubility in data set [1] came out at 256 µM (≈ 204 µg/mL). Besides, the Ki at Carbonic anhydrase 2 came out at 140 nM; in data set [3] it was 0.15 nM. Also, the EC50 in data set [2] turned out to be 70 nM. `CCN(Cc1ccc(S(=O)(=O)N2CCNCC2)cc1)c1ccc2c3c(cccc13)C(=O)N2`: in data set [4], the Thymidine reversal was 1.1. Take `CN(Cc1ccc(S(=O)(=O)c2ccccc2)cc1)c1ccc2c3c(cccc13)C(N)=N2`: the Thymidine reversal in data set [4] was 2.3.

For the molecule `CC(C)(C)OC(=O)N[C@@H](Cc1ccccc1)[C@@H](O)[C@H](O)[C@H](Cc1ccccc1)NC(=O)OC(C)(C)C`, the IC50 in data set [5] was determined as 280 nM. On the same count and under the same terms, next, `CC(C)(C)OC(=O)N[C@@H](Cc1ccccc1)C(O)[C@H](Cc1ccccc1)NC(=O)OC(C)(C)C`: 3000 nM. As for `CNC1=Nc2ccc(N(C)Cc3ccc(S(=O)(=O)N4CCOCC4)cc3)c3c(C)ccc1c23`, the Thymidine reversal in data set [4] was 12.7. Also, affinity at Thymidylate synthase was put at a Ki of 2 nM. This molecule showed an IC50 in the data set on L1210 of 150 nM. Molecule `CC(=O)N[C@@H](Cc1ccccc1)C(O)[C@H](Cc1ccccc1)NC(C)=O` came in with an IC50 in data set [5] of over 10000 nM.

The molecule `CC(C)[C@H](NC(=O)OCc1ccccn1)C(=O)N[C@@H](Cc1ccccc1)[C@H](O)[C@H](O)[C@H](Cc1ccccc1)NC(=O)[C@@H](NC(=O)OCc1ccccn1)C(C)C` returned a solubility in data set [1] of 3.1 µM (≈ 2.38 µg/mL). This molecule came in with an EC50 in data set [2] of 20 nM. Besides, the Ki in data set [3] turned out to be 0.09 nM. As for `CC(C)[C@H](NC(=O)OCc1ccccc1)C(=O)N[C@@H](Cc1ccccc1)[C@H](O)[C@H](O)[C@H](Cc1ccccc1)NC(=O)[C@@H](NC(=O)OCc1ccccc1)C(C)C`, half-maximal inhibition in data set [5] (IC50) was put at 0.22 nM. Still for that read-out and setting: next, `N[C@@H](Cc1ccccc1)C(O)[C@@H](N)Cc1ccccc1`: over 10000 nM. Same read-out and setting: with `CC(C)(C)OC(=O)N[C@@H](Cc1ccccc1)[C@H](O)[C@@H](O)[C@H](Cc1ccccc1)NC(=O)OC(C)(C)C` the figure was 40 nM; with `CC(C)[C@H](N)C(=O)N[C@@H](Cc1ccccc1)C(O)[C@H](Cc1ccccc1)NC(=O)[C@@H](N)C(C)C`, 590 nM. For `CC(C)[C@H](NC(=O)OCc1ccccn1)C(=O)N[C@@H](Cc1ccccc1)[C@H](O)[C@@H](O)[C@H](Cc1ccccc1)NC(=O)[C@@H](NC(=O)OCc1ccccn1)C(C)C`, it took 120 nM to reach a half-maximal effect in data set [2] (EC50). Besides, the Ki in data set [3] came out at 0.16 nM. Molecule `CC(C)[C@H](NC(=O)OCc1ccccn1)C(=O)N[C@@H](Cc1ccccc1)[C@@H](O)[C@H](O)[C@H](Cc1ccccc1)NC(=O)[C@@H](NC(=O)OCc1ccccn1)C(C)C` had a solubility in data set [1] of 0.27 µM (≈ 0.208 µg/mL). Besides, it took 50 nM to reach a half-maximal effect in data set [2] (EC50). In data set [3], this molecule returned a Ki of 0.19 nM. The matching figures for `CC(C)[C@H](NC(=O)N(C)Cc1ccccn1)C(=O)N[C@@H](Cc1ccccc1)[C@H](O)[C@@H](O)[C@H](Cc1ccccc1)NC(=O)[C@@H](NC(=O)N(C)Cc1ccccn1)C(C)C` [A-76928]: 292 µM (≈ 232 µg/mL), 280 nM and 1.66 nM. With `CC(C)[C@H](NC(=O)N(C)Cc1ccccn1)C(=O)N[C@@H](Cc1ccccc1)CC(O)[C@H](Cc1ccccc1)NC(=O)[C@@H](NC(=O)N(C)Cc1ccccn1)C(C)C` (single isomer, unassigned), at Carbonic anhydrase 2, the Ki turned out to be 17 nM.

For the molecule `CC(C)[C@H](NC(=O)OCc1ccccc1)C(=O)N[C@@H](Cc1ccccc1)C(O)C(O)[C@H](Cc1ccccc1)NC(=O)[C@@H](NC(=O)OCc1ccccc1)C(C)C` (single isomer, unassigned; 13), half-maximal inhibition in data set [5] (IC50) was put at 0.38 nM. Take `CN(Cc1ccc(S(=O)(=O)N2CCOCC2)cc1)c1ccc2c3c(cccc13)C(N)=N2`: the affinity on Thymidylate synthase corresponds to a Ki of 2 nM.

Source of the values: ChEMBL document CHEMBL1127692, “Application of the three-dimensional structures of protein target molecules in structure-based drug design” (J Med Chem, 1994).
